Two compounds from paper PMC3898987 (Bioorganic & Medicinal Chemistry, 2013) can be followed below.

One assay concerns the target T1, 5-HT3A receptor D165A (Homo sapiens, UniProt P46098, D160A).
T1 sequence (P46098 24-478 D160A): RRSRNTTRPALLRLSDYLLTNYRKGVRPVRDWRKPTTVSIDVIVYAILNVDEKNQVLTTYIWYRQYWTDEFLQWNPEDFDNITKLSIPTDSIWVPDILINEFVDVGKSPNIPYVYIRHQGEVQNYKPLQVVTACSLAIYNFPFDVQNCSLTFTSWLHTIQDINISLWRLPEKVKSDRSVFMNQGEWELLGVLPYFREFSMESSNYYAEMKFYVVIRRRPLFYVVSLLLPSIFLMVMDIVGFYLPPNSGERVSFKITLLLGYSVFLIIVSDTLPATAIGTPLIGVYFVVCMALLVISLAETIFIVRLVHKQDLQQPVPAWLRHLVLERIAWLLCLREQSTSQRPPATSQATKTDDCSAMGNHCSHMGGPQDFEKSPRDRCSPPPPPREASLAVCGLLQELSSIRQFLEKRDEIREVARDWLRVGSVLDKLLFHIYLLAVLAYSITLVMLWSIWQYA
Description: radioligand saturation binding, transfected HEK293 membranes. The conditions noted are these: [3H]-palonosetron saturation, 5-HT3A D165A, 4 °C, 24 h.

For the next assay, the target named is T2, 5-HT3A receptor F130A (Homo sapiens, UniProt P46098, F125A).
T2 sequence (P46098 24-478 F125A): T1 sequence (P46098 24-478 D160A) with F102A, A137D
The assay is described as above. The conditions noted are these: [3H]-palonosetron saturation, 5-HT3A F130A, 4 °C, 24 h.

A further assay concerns the target T3, 5-HT3A receptor S163T (Homo sapiens, UniProt P46098, S158T).
T3 sequence (P46098 24-478 S158T): T1 sequence (P46098 24-478 D160A) with S135T, A137D
The assay can be described thus: FlexStation membrane potential dye functional assay, HEK293 cells. In kind it is cell-based. Also noted: expressed in transfected cells; host or cells: HEK293. The following applies: inhibition of 5-HT (EC50 concentration) response, 45 min preincubation, 5-HT3A S163T.

The target in assay [1] is T4, 5-HT3AB receptor, 5-HT3B subunit F130A (Homo sapiens, UniProt O95264+P46098, F123A).
T4 sequence (P46098 24-478): T1 sequence (P46098 24-478 D160A) with A137D
T4 sequence (O95264 22-441 F123A): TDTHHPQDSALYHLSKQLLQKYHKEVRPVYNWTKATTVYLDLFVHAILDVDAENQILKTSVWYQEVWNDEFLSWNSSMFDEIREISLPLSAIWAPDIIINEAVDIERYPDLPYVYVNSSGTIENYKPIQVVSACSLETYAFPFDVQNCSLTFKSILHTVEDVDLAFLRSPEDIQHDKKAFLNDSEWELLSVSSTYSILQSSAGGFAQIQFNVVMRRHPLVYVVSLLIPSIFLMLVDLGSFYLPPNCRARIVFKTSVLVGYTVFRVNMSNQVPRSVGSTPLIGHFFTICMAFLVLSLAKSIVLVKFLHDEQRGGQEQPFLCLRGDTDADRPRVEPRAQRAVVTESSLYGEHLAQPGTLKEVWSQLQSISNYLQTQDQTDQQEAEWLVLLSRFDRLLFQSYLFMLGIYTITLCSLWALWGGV
The assay is described as above. The following applies: 5-HT concentration-response, 5-HT3AB with 5-HT3B F130A.
Description: Human embryonic kidney (HEK) 293 cells were cultured on 90 mm tissue culture plates at 37 °C and 7% CO2 in a humidified atmosphere. They were grown in DMEM:F12 (Dulbecco’s Modified Eagle’s Medium/Nutrient Mix F12 (1:1)) with GlutaMAX I™ containing 10% fetal calf serum and passaged when confluent. […] For FlexStation assays, transfected cells were plated on 96-well plates and incubated 1–2 days before assay.
(§1) Fluorometric studies were undertaken using a FlexStation® (Molecular Devices, Sunnyvale, CA, USA) as previously described.[11]
(§2) Fluorescence was measured every 2 s for 200 s. […] Concentration–response and inhibition curves were obtained for each mutant, and the fluorescence values were normalized to the maximal response.

Numbering of substitutions follows the chain as printed.

Description for 5-HT3A receptor D165A: (§3) Human embryonic kidney (HEK) 293 cells were cultured on 90 mm tissue culture plates at 37 °C and 7% CO2 in a humidified atmosphere. They were grown in DMEM:F12 (Dulbecco’s Modified Eagle’s Medium/Nutrient Mix F12 (1:1)) with GlutaMAX I™ containing 10% fetal calf serum and passaged when confluent. For radioligand binding studies, cells in 90 mm dishes were transfected at 60–70% confluency using polyethyleneimine and incubated for 3–4 days before use. For FlexStation assays, transfected cells were plated on 96-well plates and incubated 1–2 days before assay. […]
(§4) Eight-point binding assays were performed to produce saturation binding curves. […] Radioactive counts were measured using a Beckman LS6000SC liquid scintillation counter (Fullerton, California, USA).
(§5) Data were analyzed by iterative curve fitting using GraphPad Prism v5 (San Diego, CA) according to the following equation: B=Bmax[L]^n/kdn+[L]^n where B is the amount of bound radioligand, Bmax is the maximum specific binding at equilibrium, [L] is the concentration of radioligand, Kd is the equilibrium dissociation constant of the radioligand, and n is the Hill coefficient.
Description for 5-HT3A receptor F130A: as §3, §4, §5
Description for 5-HT3A receptor S163T: For FlexStation assays, transfected cells were plated on 96-well plates and incubated 1–2 days before assay.
as §1, §2

On to `O=C1c2cccc3c2[C@H](CCC3)CN1[C@@H]1CN2CCC1CC2` [Palonosetron], for which the figures for the Kd on 5-HT3A receptor D165A and at 5-HT3A receptor F130A were 0.3 ± 0.08 nM and 0.67 ± 0.12 nM, respectively. At 5-HT3A receptor S163T, this compound registered a 50% inhibitory concentration (IC50) of 1.02 ± 0.19 nM.
Turning to `NCCc1c[nH]c2ccc(O)cc12` [5-HT, serotonin], in assay [1], the “Hill Coefficient” value turned out to be 1.4 ± 0.2.

A word on the Kd: it is the constant that tells how readily two partners part at equilibrium. A low value points to a tighter complex. Usually IC50 stands for the point on the concentration scale where inhibition reaches its midpoint.
